Values of other authors, collected in patent EP1223952B1, “METHODS FOR TREATMENT OF SOLID TUMORS AND METASTASIS BY GENE THERAPY” (Aguilar-Cordova, Carlos, Estuardo, priority 1999, dated 2001).
Each block holds one compound with its values, some of them ahead of it.

Tests used:
[1] = in combination with an LHRH agonist
[2] = in vivo
[3] = oral, at all doses

diarrhea [1]: 12%
gynecomastia [1]: 9%
hot flashes [1]: 61%
impotence [1]: 33%
loss of libido [1]: 36%
nausea/vomiting [1]: 11%
other [1]: 7%
other GI [1]: 6%
Compound: CC(C)C(=O)Nc1ccc([N+](=O)[O-])c(C(F)(F)F)c1 [Eulexin, flutamide]

Elevation of LDH (> 2 x normal) [2]: 19.6%
Compound: leuprolide acetate [Lupron Depot]

Peak plasma valacyclovir concentrations [3]: less than 0.5 mcg/ml
arthralgia (in vivo): 1-6%
depression (in vivo): 1-7%
dizziness or abdominal pain (in vivo): 2-11%
headache (in vivo): 14-35%
nausea (in vivo): 6-15 % of patients
vomiting (in vivo): 1-6%
abnormal liver function tests (laboratory abnormalities): 1-4 % of patients
anemia, leukopenia, thrombocytopenia and elevated serum creatinine (laboratory abnormalities): ≤ 1 % of patients
Compound: CC(C)[C@H](N)C(=O)OCCOCn1cnc2c(=O)[nH]c(N)nc21 [valacyclovir, Valacyclovir]
